Data taken from ChEMBL document CHEMBL1143695, “Synthesis and biological studies of novel 2-aminoalkylethers as potential antiarrhythmic agents for the conversion of atrial fibrillation” (J Med Chem, 2007).

Tests used:
in vivo = conditions: CD1, mouse, iv
Description: Toxicity in intravenously dosed CD1 mouse

Rattus norvegicus [1] = experiment: Antiarrhythmic activity in intravenously dosed Sprague-Dawley rat with ischemia-induced arrhythmia; assay type: functional, Heart
Rattus norvegicus [2] = experiment: CNS toxicity in iv dosed Sprague-Dawley rat assessed as cumulative convulsion dose; assay type: organism-based; conditions: in vivo
[3] = target: T1, A-type voltage-gated potassium channel KCND2 (Rattus norvegicus, UniProt Q63881); experiment: Inhibition of rat potassium channel Kv4.2 by patch-clamp method
T1 sequence (Q63881 whole entry): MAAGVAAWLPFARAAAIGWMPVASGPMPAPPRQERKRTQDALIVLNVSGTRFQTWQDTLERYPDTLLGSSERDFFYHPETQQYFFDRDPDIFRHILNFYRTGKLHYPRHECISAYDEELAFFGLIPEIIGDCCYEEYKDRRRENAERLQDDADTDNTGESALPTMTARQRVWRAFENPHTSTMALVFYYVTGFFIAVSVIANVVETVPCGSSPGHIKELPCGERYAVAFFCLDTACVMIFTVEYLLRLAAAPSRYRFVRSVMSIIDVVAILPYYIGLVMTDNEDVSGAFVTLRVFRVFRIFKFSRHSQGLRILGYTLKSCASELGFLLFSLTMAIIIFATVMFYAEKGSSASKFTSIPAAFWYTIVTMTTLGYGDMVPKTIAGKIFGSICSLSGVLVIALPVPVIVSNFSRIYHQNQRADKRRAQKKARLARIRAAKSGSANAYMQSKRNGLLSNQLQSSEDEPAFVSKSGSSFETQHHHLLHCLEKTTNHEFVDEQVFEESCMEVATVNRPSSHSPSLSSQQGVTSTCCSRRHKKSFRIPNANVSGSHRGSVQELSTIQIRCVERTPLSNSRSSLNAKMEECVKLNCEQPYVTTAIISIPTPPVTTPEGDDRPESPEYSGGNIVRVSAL

[4] = target: Potassium voltage-gated channel subfamily A member 5 (Homo sapiens, UniProt P22460); experiment: Inhibition of human potassium channel Kv1.5 by patch-clamp method
Chain of Potassium voltage-gated channel subfamily A member 5 (P22460 whole entry): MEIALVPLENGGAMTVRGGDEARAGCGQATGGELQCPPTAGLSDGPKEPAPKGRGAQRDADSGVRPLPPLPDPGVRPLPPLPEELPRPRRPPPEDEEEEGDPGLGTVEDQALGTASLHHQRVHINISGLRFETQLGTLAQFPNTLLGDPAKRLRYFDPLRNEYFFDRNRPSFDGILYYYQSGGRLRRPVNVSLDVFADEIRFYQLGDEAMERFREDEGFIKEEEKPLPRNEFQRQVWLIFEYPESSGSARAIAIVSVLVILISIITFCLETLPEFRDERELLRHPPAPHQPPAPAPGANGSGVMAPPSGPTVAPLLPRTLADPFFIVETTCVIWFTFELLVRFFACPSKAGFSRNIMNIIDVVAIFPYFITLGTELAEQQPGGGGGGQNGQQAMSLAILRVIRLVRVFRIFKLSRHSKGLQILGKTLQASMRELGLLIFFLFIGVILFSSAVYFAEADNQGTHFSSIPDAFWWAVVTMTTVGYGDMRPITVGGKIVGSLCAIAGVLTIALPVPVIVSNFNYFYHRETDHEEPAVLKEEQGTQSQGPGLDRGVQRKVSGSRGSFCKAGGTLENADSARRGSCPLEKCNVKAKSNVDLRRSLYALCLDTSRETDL

| SMILES | LD50 (in vivo) [µmol/kg] | ED50 (Rattus norvegicus [1]) [µmol/kg/min] | Activity (Rattus norvegicus [2]) [µmol/kg] | IC50 [3] [µM] | IC50 [4] [µM] |
| --- | --- | --- | --- | --- | --- |
| c1ccc2cc(CCO[C@@H]3CCCC[C@H]3N3CCOCC3)ccc2c1 | 130 | 0.8 | 85 | – | – |
| COc1ccc(CCO[C@@H]2CCCC[C@H]2N2CCC3(C2)OCCO3)cc1OC | – | 1.6 | 91 | – | – |
| O=C1CCN([C@@H]2CCCC[C@H]2OCCc2ccccc2C(F)(F)F)C1 | – | 2.7 | 225 | – | – |
| O=C(NCC1CCCCN1)c1cc(OCC(F)(F)F)ccc1OCC(F)(F)F (stereo not given) [FLECAINIDE] | 20 | – | 113 | 10.1 | 51 |
| Brc1ccc(CCCO[C@@H]2CCCC[C@H]2N2CCOCC2)cc1 | 209 | 3.5 | 143 | – | – |
| c1ccc2cc(OCCO[C@@H]3CCCC[C@H]3N3CCOCC3)ccc2c1 | – | – | 62 | – | – |
| O=C1CCN([C@@H]2CCCC[C@H]2OCCc2ccc(Br)cc2)C1 | – | 8 | 161 | – | – |
| COc1ccc(CCO[C@@H]2CCCC[C@H]2N2CCC(=O)C2)cc1OC | – | 4.5 | 235 | – | – |
| c1ccc2cc(CCO[C@@H]3CCC[C@H]3N3CCOCC3)ccc2c1 | – | 1.5 | 187 | – | – |
| Clc1ccc(CCO[C@@H]2CCCC[C@H]2N2CCOCC2)c(Cl)c1 | – | 2.1 | 94 | – | – |
| COc1ccc(CCCCO[C@@H]2CCCC[C@H]2N2CCOCC2)cc1OC | – | 1.5 | 67 | – | – |
| Brc1ccc(CCO[C@H]2CCCC[C@H]2N2CCOCC2)cc1 (single isomer, unassigned) | – | 2 | 6.7 | – | – |
| O=C1CCN([C@@H]2CCCC[C@H]2OCCc2ccccc2Br)C1 | – | – | 155 | – | – |
| O=C1CCN([C@@H]2CCCC[C@H]2OCCc2ccc(Br)cc2Br)C1 | – | – | 246 | – | – |
| c1cc(CCO[C@@H]2CCCC[C@H]2N2CCOCC2)c2ccoc2c1 | 56 | 1.4 | – | – | – |
| FC(F)(F)c1ccccc1CCO[C@H]1CCCC[C@H]1N1CCOCC1 (single isomer, unassigned) | – | 1.4 | 102 | – | – |
| c1ccc2c(CCO[C@@H]3CCCC[C@H]3N3CCCC3)cccc2c1 | – | 0.9 | – | – | – |
| COCCN(CCOC)[C@@H]1CCCC[C@H]1OCCc1ccc2ccccc2c1 | – | 3 | 83 | – | – |
| O=C1CCN([C@@H]2CCCC[C@H]2OCCc2ccc(Br)c3ccccc23)C1 | – | 2.8 | 246 | – | – |
| COc1ccc(CCCO[C@@H]2CCCC[C@H]2N2CCOCC2)c(OC)c1 | 130 | 1.2 | 94 | – | – |
| c1cc(CCO[C@@H]2CCCC[C@H]2N2CCOCC2)c2ccsc2c1 | 38 | 0.7 | 54 | – | – |
| COc1ccc(CCO[C@@H]2CCCC[C@H]2N2CCCC2)cc1OC | – | 1.3 | 118 | – | – |
| Brc1ccc(CCO[C@@H]2CCCC[C@H]2N2CCOCC2)c(Br)c1 | – | – | 123 | – | – |
| Brc1ccc(CCO[C@@H]2CCCC[C@H]2N2CCOCC2)cc1 | 103 | 2.5 | 91 | – | – |
